# Source: patent publication US10442793B2, “Oxa spiro derivative, preparation method therefor, and applications thereof in medicines” (Jiangsu Hengrui Medicine Co., Ltd., priority 2015, dated 2019)
# Read-outs that look alike come from different tables or passages of the source.
# Experiments:
# Assay type in all cases: cell-based
# μ-opioid receptors (MOR) = target: T1, μ-opioid receptors (MOR) (Homo sapiens, UniProt P35372); assay: MOR activity test: HEK293/MOR/CRE luciferase reporter, agonizing MOR and affecting downstream cAMP levels; conditions: for Emax: HEK293, maximum effect of TRV-130 is 100%, read-out: Emax on agonizing MOR receptor and affecting cAMP levels
# T1 construct: host or cells: HEK293
# From the text: The compounds of the present invention can activate μ-opioid receptors (MOR). Activated MOR can regulate intracellular cAMP levels, and cAMP enters the nucleus and binds to the CRE region of the reporter gene luciferase, thereby initiating the expression of the reporter gene. Luciferase can react with its substrate to emit fluorescence, and the measured fluorescence signals reflect the agonistic activity of the compounds.
# The activity of the test example compounds on agonizing MOR and affecting downstream cAMP levels was tested by the following method.
# MOR/pcDNA3.1 (+) and CRE/pGL4.29 were transferred into HEK293 cells. G418 and hygromycin were added into the culture medium, and HEK293/MOR/CRE monoclonal cell lines were screened in a 96-well cell culture plate.
# HEK293/MOR/CRE monoclonal cells were cultured in a DMEM/high glucose medium (10% FBS, 1 mg/ml G418, 200 μg/ml hygromycin, mixed uniformly), and passaged every 3 days. On the day of the experiment, a cell suspension was prepared with a fresh cell medium, added to a 96 well plate (BD, #356692) with 20,000 cells/well, and incubated in 5% CO2 at 37° C. On the second day, the compound was dissolved in pure DMSO at a concentration of 20 mM, then formulated with DMSO to a first concentration of 4 mM and diluted in 10 fold concentration gradient to 6 concentrations. Then, 90 μl of DMSO was added to blank and control wells. Then, formulated compound was prepared by adding 2.5 μl of the compound solutions formulated in DMSO at a gradient concentration to 97.5 μl of a fresh cell culture medium containing 5 μM foscolin. Then, 10 μl of the formulated compound was added to the cell culture plate to make the final concentration of the compound 10000, 1000, 100, 10, 1, 0.1, or 0.01 nM, and the plate was incubated at 37° C., in 5% CO2 for 5 hours. In a 96-well cell culture plate, 100 μl of luciferase assay solution (Promega, # E6110) was added to each well. The plate was placed in the dark at room temperature for 10-15 minutes, blowed and aspirated 10 times, and 100 μl were pipetted to a 96 well white plate. The chemiluminescence signal values were read in a microplate reader (PE, Victor3), and the read data was processed using software.
# The activity of the compounds of the present invention on agonizing MOR and affecting downstream cAMP levels was determined by the above test, and the EC50 values are shown in Table 1.1.
# MOR receptor = target: T2, MOR receptor (Homo sapiens, UniProt P35372); assay: Activation of the β-arrestin signaling pathway of MOR receptor (CHO-K1 OPRM1 β-Arrestin cells, DiscoveRX); conditions: for Emax: maximum effect of morphine is 100%
# T2 construct: host or cells: CHO-K1
# Protocol: The experiment objective is to determine the activity of the compounds of the present invention on activating the β-arrestin signaling pathway of MOR receptor.
# The drug was prepared as a 20 mM stock solution that was later diluted with 100% DMSO to a 200×concentration gradient, and then diluted with a 20-fold AssayComplete™ Cell Plating 2 Reagent (93-0563R2B, DiscoveRX) medium. The cell culture plate inoculated on the first day was taken out, and 10 μl of the diluted drug or control (0.5% DMSO) was added to each well. The plate was gently shaken and placed in an incubator at 37° C., 5% CO2 for 90 minutes. Finally, 50 μL of a detection reagent (93-0001, DiscoveRX) were added to each well, and the plate was placed at room temperature for 60 minutes. The absorbance values were measured by the cold light model of a microplate reader (PE, Victor3). The EC50 values of the compounds were calculated by Graphpad Prism software according to each concentration of the compound and the corresponding signal value.
# hERG potassium channel = target: T3, hERG potassium channel (Homo sapiens, UniProt Q12809); assay: Blocking of hERG potassium current, automatic patch clamp on HEK293-hERG cells
# T3 construct: expressed in transfected cells; host or cells: HEK293
# Protocol: The blocking effect of the compounds of the present invention and the positive compound TRV-130 (Journal of Pharmacology and Experimental Therapeutics, Volume 344, Issue 3, Pages 708-717, 2013) on hERG potassium current was tested on a stable cell line transfected with hERG potassium channel using an automatic patch clamp.
# HEK293-hERG stabilized cells were subcultured at a density of 1:4 in a MEM/EBSS medium (10% FBS, 400 μg/ml G418, 1% MEM nonessential amino acid solution (100×), 1% sodium pyruvate solution) for 48-72 hours, then the automatic patch clamp experiment was performed. The cells were digested with 0.25% trypsin on the day of the experiment, then the cells were collected by centrifugation and resuspended with extracellular fluid (140 mM NaCl, 4 mM KCl, 1 mM MgCl2, 2 mM CaCl2, 5 mM D-glucose monohydrate, 10 mM Hepes, pH 7.4, 298 mOsmol) into a cell suspension. The cell suspension was placed on the cell bank of the Patchliner instrument, and the cells were added to the chip (NPC-16) by the negative pressure controller of the Patchliner instrument, with negative pressure attracting individual cells to the small hole of the chip. After the whole cell model was formed, the instrument generated the hERG current according to the preset hERG current and voltage program, and then the instrument perfused the compound from low concentration to high concentration automatically. HEAK Patchmaster, HEAK EPC10 patch clamp amplifier (Nanion), Pathliner software, and a data analysis software provided by Pathcontrol HTsoftware were used to analyze the current of the compounds at different concentrations and the current of the blank control.
# The blocking effect of the compounds of the present invention on hERG potassium current was determined by the above test, and the IC50 values are shown in Table 3.
# KOR receptor = target: T4, KOR receptor (Homo sapiens, UniProt P41145); assay: KOR activity test: HEK293/KOR/CRE luciferase reporter, cAMP levels; conditions: for Emax: HEK293, maximum effect of morphine is 100%
# T4 construct: expressed in transfected cells; host or cells: HEK293
# Protocol: (§1) The experiment objective is to determine the activity of the compounds of the present invention on agonizing KOR receptor and DOR receptor, and affecting downstream cAMP levels.
# (§2) 90 μl of HEK293/KOR/CRE or HEK293/DOR/CRE (CRE cDNA purchased from Promega, product number E8471, KOR cDNA and DOR cDNA were constructed by our company) cells were inoculated in a 96-well plate with a density of 1×10^4 cells/well. Then, the cells were incubated overnight at 37° C., in 5% CO2. The drug was prepared as a 20 mM stock solution that was later diluted with 100% DMSO to a 200×concentration gradient, and then diluted with a 20-fold DMEM/high glucose (SH30243.01B, Hyclone) medium. The cell culture plate inoculated on the first day was taken out, and […] of the diluted drug or control (0.5% DMSO) was added to each well. The plate was gently shaken and placed in a incubator at 37° C., 5% CO2 for 4 hours. Finally, 100 μl of a detection reagent ONE-Glo (E6120, Promega) was added to each well, and the plate was placed at room temperature for 5 minutes. The absorbance value was measured by the cold light model of a microplate reader (PE, Victor3). The EC50 value of the compound was calculated by Graphpad Prism software according to each concentration of the compound and the corresponding signal value. Emax is the maximum effect of the compound on cAMP level changes.
# (§3) The activity of the compounds of the present invention on agonizing KOR receptor or DOR receptor and affecting downstream cAMP levels was determined by the above test, and the EC50 values are shown in Table 1.2.
# DOR receptor = target: T5, DOR receptor (Homo sapiens, UniProt P41143); assay: DOR activity test: HEK293/DOR/CRE luciferase reporter, cAMP levels; conditions: for Emax: HEK293, maximum effect of morphine is 100%
# T5 construct: expressed in transfected cells; host or cells: HEK293
# Protocol: as §1, §2, §3
# [1] = HEK293/MOR/CRE cells, 5 h incubation, forskolin, read-out: EC50 on agonizing MOR receptor and affecting cAMP levels
# [2] = CHO-K1 OPRM1 β-Arrestin cells, 90 minutes, read-out: EC50 on the β-arrestin signaling pathway
# [3] = HEK293-hERG cells, automatic patch clamp, read-out: IC50 on blocking hERG potassium current
# [4] = HEK293/KOR/CRE cells, 4 h incubation, read-out: KOR EC50
# [5] = HEK293/DOR/CRE cells, 4 h incubation, read-out: DOR EC50
# T1 sequence (P35372 whole entry): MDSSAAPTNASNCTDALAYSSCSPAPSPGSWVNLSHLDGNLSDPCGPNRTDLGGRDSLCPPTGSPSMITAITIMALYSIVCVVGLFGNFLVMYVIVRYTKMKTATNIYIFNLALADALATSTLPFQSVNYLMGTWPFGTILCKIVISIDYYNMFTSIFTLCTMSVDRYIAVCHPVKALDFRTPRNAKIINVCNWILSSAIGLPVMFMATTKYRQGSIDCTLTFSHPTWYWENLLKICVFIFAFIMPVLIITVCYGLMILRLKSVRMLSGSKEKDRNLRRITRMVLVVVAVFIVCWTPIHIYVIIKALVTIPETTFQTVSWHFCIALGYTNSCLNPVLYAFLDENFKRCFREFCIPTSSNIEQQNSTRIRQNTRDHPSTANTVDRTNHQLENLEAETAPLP
# T2 sequence (P35372 whole entry): as above
# T5 sequence (P41143 whole entry): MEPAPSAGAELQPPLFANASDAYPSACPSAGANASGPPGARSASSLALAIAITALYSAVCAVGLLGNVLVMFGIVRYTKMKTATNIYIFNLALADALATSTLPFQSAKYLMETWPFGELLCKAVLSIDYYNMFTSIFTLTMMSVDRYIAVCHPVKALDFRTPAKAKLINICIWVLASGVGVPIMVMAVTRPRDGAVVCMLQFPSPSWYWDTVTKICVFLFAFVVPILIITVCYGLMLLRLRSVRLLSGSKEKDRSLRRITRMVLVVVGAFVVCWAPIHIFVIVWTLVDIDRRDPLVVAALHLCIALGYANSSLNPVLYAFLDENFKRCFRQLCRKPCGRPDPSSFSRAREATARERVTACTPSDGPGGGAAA
# T4 sequence (P41145 whole entry): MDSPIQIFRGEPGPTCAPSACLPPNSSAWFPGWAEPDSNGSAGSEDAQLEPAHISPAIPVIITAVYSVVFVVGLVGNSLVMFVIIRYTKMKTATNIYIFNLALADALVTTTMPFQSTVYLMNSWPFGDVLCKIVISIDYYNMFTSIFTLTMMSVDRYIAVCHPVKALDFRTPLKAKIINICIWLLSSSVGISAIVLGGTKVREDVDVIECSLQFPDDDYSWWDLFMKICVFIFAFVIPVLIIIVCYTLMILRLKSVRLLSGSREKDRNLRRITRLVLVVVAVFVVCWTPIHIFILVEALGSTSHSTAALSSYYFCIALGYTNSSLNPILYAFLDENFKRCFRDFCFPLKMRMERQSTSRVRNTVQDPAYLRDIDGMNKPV
# T3 sequence (Q12809 whole entry): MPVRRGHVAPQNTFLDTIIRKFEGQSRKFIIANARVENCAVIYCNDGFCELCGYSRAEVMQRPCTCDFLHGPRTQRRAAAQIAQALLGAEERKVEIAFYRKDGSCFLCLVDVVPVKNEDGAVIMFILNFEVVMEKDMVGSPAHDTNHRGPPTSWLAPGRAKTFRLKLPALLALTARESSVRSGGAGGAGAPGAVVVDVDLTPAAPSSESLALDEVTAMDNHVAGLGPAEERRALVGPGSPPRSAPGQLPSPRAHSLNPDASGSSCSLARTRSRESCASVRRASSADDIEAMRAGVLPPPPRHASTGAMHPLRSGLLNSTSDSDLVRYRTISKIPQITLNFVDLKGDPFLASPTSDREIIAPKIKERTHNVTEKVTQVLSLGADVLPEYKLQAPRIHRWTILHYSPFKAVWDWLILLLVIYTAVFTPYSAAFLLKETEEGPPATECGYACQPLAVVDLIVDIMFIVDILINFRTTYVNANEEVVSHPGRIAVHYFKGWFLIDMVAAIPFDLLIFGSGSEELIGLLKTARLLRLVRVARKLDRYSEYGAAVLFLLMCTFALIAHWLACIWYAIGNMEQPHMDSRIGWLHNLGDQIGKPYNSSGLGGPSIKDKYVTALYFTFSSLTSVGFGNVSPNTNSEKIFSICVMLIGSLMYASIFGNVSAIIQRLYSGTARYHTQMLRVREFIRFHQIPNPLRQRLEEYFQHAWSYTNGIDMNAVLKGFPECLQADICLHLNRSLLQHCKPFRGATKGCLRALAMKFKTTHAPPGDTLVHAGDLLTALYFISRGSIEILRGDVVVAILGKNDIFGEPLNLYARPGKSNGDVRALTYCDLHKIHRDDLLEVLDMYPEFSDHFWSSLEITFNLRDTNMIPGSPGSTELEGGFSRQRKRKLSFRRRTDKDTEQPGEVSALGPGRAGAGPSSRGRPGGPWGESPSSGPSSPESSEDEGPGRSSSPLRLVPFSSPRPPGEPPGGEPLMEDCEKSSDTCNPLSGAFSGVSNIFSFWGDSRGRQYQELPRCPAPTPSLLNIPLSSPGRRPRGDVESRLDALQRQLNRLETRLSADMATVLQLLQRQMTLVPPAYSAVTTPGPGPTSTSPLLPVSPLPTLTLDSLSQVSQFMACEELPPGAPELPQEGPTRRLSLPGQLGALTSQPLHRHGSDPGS
SMILES,EC50 (μ-opioid receptors (MOR); [1]),Emax (μ-opioid receptors (MOR)),EC50 (MOR receptor; [2]),Emax (MOR receptor),IC50 (hERG potassium channel; [3]),EC50 (μ-opioid receptors (MOR)),EC50 (KOR receptor),Emax (KOR receptor),EC50 (DOR receptor),Emax (DOR receptor),EC50 (MOR receptor),IC50 (hERG potassium channel),EC50 (KOR receptor; [4]),EC50 (DOR receptor; [5])
"CCN1CC[C@H](NCC[C@@]2(c3ccccn3)CCOC3(CCCC3)C2)c2ccccc21 [Example 1, (S)-1-ethyl-N-(2-((R)-9-(pyridin-2-yl)-6-oxaspiro[4.5]decan-9-yl)ethyl)-1,2,3,4-tetrahydroquinolin-4-amine]",10 nM,102%,4 nM,12%,13000 nM,–,–,–,–,–,–,–,–,–
"c1ccc([C@]2(CCN[C@H]3CCC4(SCCS4)c4ccccc43)CCOC3(CCCC3)C2)nc1 [Example 24, (S)-N-(2-((R)-9-(pyridin-2-yl)-6-oxaspiro[4.5]decan-9-yl)ethyl)-3′,4′-dihydro-2′H-spiro[[1,3]dithiolane-2,1′-naphthalen]-4′-amine]",0.8 nM,102%,6 nM,30%,2500 nM,–,–,–,–,–,–,–,–,–
"COC[C@H]1CC[C@H](NCC[C@@]2(c3ccccn3)CCOC3(CCCC3)C2)c2ccccc21 [Example 22, (1S,4S)-4-(methoxymethyl)-N-(2-((R)-9-(pyridin-2-yl)-6-oxaspiro[4.5]decan-9-yl)ethyl)-1,2,3,4-tetrahydronaphthalen-1-amine]",–,103%,–,18%,–,4 nM,3090 nM,97%,2400 nM,102%,41 nM,3800 nM,–,–
"c1ccc([C@]2(CCN[C@H]3CCc4ccccc43)CCOC3(CCCC3)C2)nc1 [Example 16, (S)-N-(2-((R)-9-(pyridin-2-yl)-6-oxaspiro[4.5]decan-9-yl)ethyl)-2,3-dihydro-1H-inden-1-amine]",–,122%,–,9%,–,9 nM,–,–,–,–,94 nM,10000 nM,–,–
"CO[C@H]1CC[C@H](NCC[C@@]2(c3ccccn3)CCOC3(CCCC3)C2)c2ccccc21 [Example 14, (1S,4S)-4-methoxy-N-(2-((R)-9-(pyridin-2-yl)-6-oxaspiro[4.5]decan-9-yl)ethyl)-1,2,3,4-tetrahydronaphthalen-1-amine]",–,109%,–,24%,–,3 nM,1470 nM,74%,1510 nM,91%,26 nM,8600 nM,–,–
"c1ccc([C@]2(CCN[C@H]3CCOc4ccccc43)CCOC3(CCCC3)C2)nc1 (single isomer, unassigned) [Example 5]",–,122%,–,–,–,5 nM,–,–,–,–,–,6200 nM,–,–
"c1ccc([C@]2(CCN[C@H]3CC[C@H](OCC4CC4)c4ccccc43)CCOC3(CCCC3)C2)nc1 [Example 20, (1S,4S)-4-(cyclopropylmethoxy)-N-(2-((R)-9-(pyridin-2-yl)-6-oxaspiro[4.5]decan-9-yl)ethyl)-1,2,3,4-tetrahydronaphthalen-1-amine]",–,–,4 nM,9%,–,–,–,103%,–,118%,–,–,710 nM,1520 nM
"O[C@@H]1Cc2ccccc2[C@H]1NCC[C@@]1(c2ccccn2)CCOC2(CCCC2)C1 [Example 3, (1R,2R)-1-((2-((R)-9-(pyridin-2-yl)-6-oxaspiro[4.5]decan-9-yl)ethyl)amino)-2,3-dihydro-1H-inden-2-ol]",–,124%,–,–,–,2 nM,–,–,–,–,–,> 30000 nM,–,–
"FCCO[C@H]1CC[C@H](NCC[C@@]2(c3ccccn3)CCOC3(CCCC3)C2)c2ccccc21 [Example 21, (1S,4S)-4-(2-fluoroethoxy)-N-(2-((R)-9-(pyridin-2-yl)-6-oxaspiro[4.5]decan-9-yl)ethyl)-1,2,3,4-tetrahydronaphthalen-1-amine]",5 nM,110%,–,–,4200 nM,–,–,100%,–,107%,–,–,1180 nM,1490 nM
